Source: ChEMBL document CHEMBL3046025, “Fungitoxic Properties of N-Phenylformamidoximes in Control of Benzimidazole-Resistant Isolates of Fungi” (1992)

Assays:
Assay type in all cases: functional
Botrytis cinerea [1] = experiment: Antifungal activity against Benzimidalzole-sensitive Botryotinia fuckeliana isolate Bc-9 infected kidney bean leaves at 12.5 ppm 24 hr post-infection measured after 3 days
Cercospora beticola [2] = experiment: Antifungal activity against Benzimidalzole-sensitive Cercospora beticola isolate 18-1 infected in sugar beet seedlings at 3.1 ppm 24 hr-post inoculation
Cercospora beticola [3] = experiment: Antifungal activity against Benzimidalzole-sensitive Cercospora beticola isolate 18-1 infected in sugar beet seedlings at 12.5 ppm 24 hr-post inoculation
Cercospora beticola [4] = experiment: Antifungal activity against Benzimidalzole-sensitive Cercospora beticola isolate 18-1 infected in sugar beet seedlings at 50 ppm 24 hr-post inoculation
Cercospora beticola [5] = experiment: Antifungal activity against Benzimidalzole-sensitive Cercospora beticola isolate 18-1 infected in sugar beet seedlings at 200 ppm 24 hr-post inoculation
Botrytis cinerea [6] = experiment: Antifungal activity against Benzimidalzole-sensitive Botryotinia fuckeliana isolate Bc-9 infected kidney bean leaves at 200 ppm applied as soil drench 3 days prior to inoculation
Botrytis cinerea [7] = experiment: Antifungal activity against Benzimidalzole-sensitive Botryotinia fuckeliana isolate Bc-9 infected kidney bean leaves at 200 ppm treated as foliar application followed by incubation for 7 days in green house condition
Botrytis cinerea [8] = experiment: Antifungal activity against Benzimidalzole-sensitive Botryotinia fuckeliana isolate Bc-9 infected compound-treated kidney bean leaves at 12.5 ppm after 4 days
Botrytis cinerea [9] = experiment: Antifungal activity against Benzimidalzole-sensitive Botryotinia fuckeliana isolate Bc-9 infected compound-treated kidney bean leaves at 50 ppm after 4 days
Botrytis cinerea [10] = experiment: Antifungal activity against Benzimidalzole-sensitive Botryotinia fuckeliana isolate Bc-9 infected compound-treated kidney bean leaves at 200 ppm after 4 days
Botrytis cinerea [11] = experiment: Antifungal activity against Benzimidalzole-resistant Botryotinia fuckeliana isolate Bc-44 infected compound-treated kidney bean leaves at 12.5 ppm after 4 days
Botrytis cinerea [12] = experiment: Antifungal activity against Benzimidalzole-resistant Botryotinia fuckeliana isolate Bc-44 infected compound-treated kidney bean leaves at 50 ppm after 4 days
Botrytis cinerea [13] = experiment: Antifungal activity against Benzimidalzole-resistant Botryotinia fuckeliana isolate Bc-44 infected compound-treated kidney bean leaves at 200 ppm after 4 days
Botrytis cinerea [14] = experiment: Antifungal activity against Benzimidalzole-resistant Botryotinia fuckeliana isolate Bc-20 infected compound-treated kidney bean leaves at 12.5 ppm after 4 days
Botrytis cinerea [15] = experiment: Antifungal activity against Benzimidalzole-resistant Botryotinia fuckeliana isolate Bc-20 infected compound-treated kidney bean leaves at 200 ppm after 4 days
Botrytis cinerea [16] = experiment: Antifungal activity against Benzimidalzole-resistant Botryotinia fuckeliana isolate Bc-20 infected compound-treated kidney bean leaves at 50 ppm after 4 days
Cercospora beticola [17] = experiment: Antifungal activity against Benzimidalzole-sensitive Cercospora beticola isolate 18-1 infected in sugar beet seedlings at 200 ppm applied as soil drench 3 days prior to inoculation
Cercospora beticola [18] = experiment: Antifungal activity against Benzimidalzole-sensitive Cercospora beticola isolate 18-1 infected in sugar beet seedlings at 12.5 ppm treated as foliar application 7 days prior to inoculation
Cercospora beticola [19] = experiment: Antifungal activity against Benzimidalzole-sensitive Cercospora beticola isolate 18-1 infected in sugar beet seedlings at 50 ppm treated as foliar application 7 days prior to inoculation
Cercospora beticola [20] = experiment: Antifungal activity against Benzimidalzole-sensitive Cercospora beticola isolate 18-1 infected in sugar beet seedlings at 200 ppm treated as foliar application 7 days prior to inoculation
Cercospora beticola [21] = experiment: Antifungal activity against Benzimidalzole-sensitive Cercospora beticola isolate 18-1 infected in compound-treated sugar beet seedlings at 200 ppm after 12 days
Cercospora beticola [22] = experiment: Antifungal activity against Benzimidalzole-sensitive Cercospora beticola isolate 18-1 infected in compound-treated sugar beet seedlings at 50 ppm after 12 days
Cercospora beticola [23] = experiment: Antifungal activity against Benzimidalzole-sensitive Cercospora beticola isolate 18-1 infected in compound-treated sugar beet seedlings at 12.5 ppm after 12 days
Botrytis cinerea [24] = experiment: Antifungal activity against Benzimidalzole-sensitive Botryotinia fuckeliana isolate Bc-9 infected kidney bean leaves at 50 ppm 24 hr post-infection measured after 3 days
Botrytis cinerea [25] = experiment: Antifungal activity against Benzimidalzole-sensitive Botryotinia fuckeliana isolate Bc-9 infected kidney bean leaves at 200 ppm 24 hr post-infection measured after 3 days
Cercospora beticola [26] = experiment: Antifungal activity against Benzimidalzole-resistant Cercospora beticola isolate 18-2 infected in compound-treated sugar beet seedlings at 50 ppm after 12 days
Cercospora beticola [27] = experiment: Antifungal activity against Benzimidalzole-resistant Cercospora beticola isolate 18-2 infected in compound-treated sugar beet seedlings at 200 ppm after 12 days
Cercospora beticola [28] = experiment: Antifungal activity against Benzimidalzole-resistant Cercospora beticola isolate Cb-19 infected in compound-treated sugar beet seedlings at 50 ppm after 12 days
Cercospora beticola [29] = experiment: Antifungal activity against Benzimidalzole-resistant Cercospora beticola isolate Cb-19 infected in compound-treated sugar beet seedlings at 200 ppm after 12 days
Cercospora beticola [30] = experiment: Antifungal activity against Benzimidalzole-resistant Cercospora beticola isolate 20-2 infected in compound-treated sugar beet seedlings at 3.1 ppm after 12 days
Cercospora beticola [31] = experiment: Antifungal activity against Benzimidalzole-resistant Cercospora beticola isolate 20-2 infected in compound-treated sugar beet seedlings at 12.5 ppm after 12 days
Cercospora beticola [32] = experiment: Antifungal activity against Benzimidalzole-resistant Cercospora beticola isolate 20-2 infected in compound-treated sugar beet seedlings at 50 ppm after 12 days
Cercospora beticola [33] = experiment: Antifungal activity against Benzimidalzole-resistant Cercospora beticola isolate 20-2 infected in compound-treated sugar beet seedlings at 200 ppm after 12 days
Cercospora beticola [34] = experiment: Antifungal activity against Benzimidalzole-sensitive Cercospora beticola isolate 18-1 infected in compound-treated sugar beet seedlings at 3.1 ppm after 12 days
Botrytis cinerea [35] = experiment: Antifungal activity against Benzimidalzole-resistant Botryotinia fuckeliana isolate Bc-44 infected kidney bean leaves at 12.5 ppm treated as foliar application followed by incubation for 7 days in green house condition
Botrytis cinerea [36] = experiment: Antifungal activity against Benzimidalzole-resistant Botryotinia fuckeliana isolate Bc-44 infected kidney bean leaves at 50 ppm treated as foliar application followed by incubation for 7 days in green house condition
Botrytis cinerea [37] = experiment: Antifungal activity against Benzimidalzole-resistant Botryotinia fuckeliana isolate Bc-44 infected kidney bean leaves at 200 ppm treated as foliar application followed by incubation for 7 days in green house condition
Botrytis cinerea [38] = experiment: Antifungal activity against Benzimidalzole-resistant Botryotinia fuckeliana isolate Bc-44 infected kidney bean leaves at 50 ppm applied as soil drench 3 days prior to inoculation
Botrytis cinerea [39] = experiment: Antifungal activity against Benzimidalzole-resistant Botryotinia fuckeliana isolate Bc-44 infected kidney bean leaves at 200 ppm applied as soil drench 3 days prior to inoculation
Botrytis cinerea [40] = experiment: Antifungal activity against Benzimidalzole-resistant Botryotinia fuckeliana isolate Bc-20 infected compound-treated kidney bean leaves at 3.1 ppm after 4 days
Botrytis cinerea [41] = experiment: Antifungal activity against Benzimidalzole-sensitive Botryotinia fuckeliana isolate Bc-9 infected compound-treated kidney bean leaves at 3.1 ppm after 4 days
Botrytis cinerea [42] = experiment: Antifungal activity against Benzimidalzole-resistant Botryotinia fuckeliana isolate Bc-44 infected kidney bean leaves at 3.1 ppm 24 hr post-infection measured after 3 days
Botrytis cinerea [43] = experiment: Antifungal activity against Benzimidalzole-resistant Botryotinia fuckeliana isolate Bc-44 infected kidney bean leaves at 12.5 ppm 24 hr post-infection measured after 3 days
Botrytis cinerea [44] = experiment: Antifungal activity against Benzimidalzole-resistant Botryotinia fuckeliana isolate Bc-44 infected kidney bean leaves at 50 ppm 24 hr post-infection measured after 3 days
Botrytis cinerea [45] = experiment: Antifungal activity against Benzimidalzole-resistant Botryotinia fuckeliana isolate Bc-44 infected kidney bean leaves at 200 ppm 24 hr post-infection measured after 3 days
Botrytis cinerea [46] = experiment: Antifungal activity against Benzimidalzole-resistant Botryotinia fuckeliana isolate Bc-44 infected compound-treated kidney bean leaves at 3.1 ppm after 4 days
Cercospora beticola [47] = experiment: Antifungal activity against Benzimidalzole-resistant Cercospora beticola isolate Cb-19 infected in sugar beet seedlings at 12.5 ppm treated as foliar application 7 days prior to inoculation
Cercospora beticola [48] = experiment: Antifungal activity against Benzimidalzole-resistant Cercospora beticola isolate Cb-19 infected in sugar beet seedlings at 50 ppm treated as foliar application 7 days prior to inoculation
Cercospora beticola [49] = experiment: Antifungal activity against Benzimidalzole-resistant Cercospora beticola isolate Cb-19 infected in sugar beet seedlings at 200 ppm treated as foliar application 7 days prior to inoculation
Cercospora beticola [50] = experiment: Antifungal activity against Benzimidalzole-resistant Cercospora beticola isolate Cb-19 infected in sugar beet seedlings at 200 ppm 24 hr-post inoculation
Cercospora beticola [51] = experiment: Antifungal activity against Benzimidalzole-resistant Cercospora beticola isolate Cb-19 infected in sugar beet seedlings at 200 ppm applied as soil drench 3 days prior to inoculation
Cercospora beticola [52] = experiment: Antifungal activity against Benzimidalzole-resistant Cercospora beticola isolate 18-2 infected in compound-treated sugar beet seedlings at 3.1 ppm after 12 days
Cercospora beticola [53] = experiment: Antifungal activity against Benzimidalzole-resistant Cercospora beticola isolate 18-2 infected in compound-treated sugar beet seedlings at 12.5 ppm after 12 days
Cercospora beticola [54] = experiment: Antifungal activity against Benzimidalzole-resistant Cercospora beticola isolate Cb-19 infected in compound-treated sugar beet seedlings at 3.1 ppm after 12 days
Cercospora beticola [55] = experiment: Antifungal activity against Benzimidalzole-resistant Cercospora beticola isolate Cb-19 infected in compound-treated sugar beet seedlings at 12.5 ppm after 12 days

Compound | Activity (Botrytis cinerea [8]) | Activity (Botrytis cinerea [9]) | Activity (Botrytis cinerea [10]) | Activity (Botrytis cinerea [11]) | Activity (Botrytis cinerea [12]) | Activity (Botrytis cinerea [13]) | Activity (Botrytis cinerea [14]) | Activity (Botrytis cinerea [15]) | Activity (Botrytis cinerea [16]) | Activity (Cercospora beticola [21]) | Activity (Cercospora beticola [22]) | Activity (Cercospora beticola [23]) | Activity (Cercospora beticola [26]) | Activity (Cercospora beticola [27]) | Activity (Cercospora beticola [28]) | Activity (Cercospora beticola [29]) | Activity (Cercospora beticola [30]) | Activity (Cercospora beticola [31]) | Activity (Cercospora beticola [32]) | Activity (Cercospora beticola [33]) | further results
COC(=O)NC(=S)Nc1ccccc1NC(=S)NC(=O)OC [THIOPHANATE METHYL] | 35% | 84% | 96% | 0% | 0% | 5% | 0% | 17% | 7% | 100% | 100% | 88% | 0% | 0% | 0% | 0% | 0% | 12% | 56% | 78% | Activity (Botrytis cinerea [1]): 73%; Activity (Cercospora beticola [2]): 13%; Activity (Cercospora beticola [3]): 75%; Activity (Cercospora beticola [4]): 100%; Activity (Cercospora beticola [5]): 100%; Activity (Botrytis cinerea [6]): 51%; Activity (Botrytis cinerea [7]): 93%; Activity (Cercospora beticola [17]): 64%; Activity (Cercospora beticola [18]): 25%; Activity (Cercospora beticola [19]): 84%; Activity (Cercospora beticola [20]): 88%; Activity (Botrytis cinerea [24]): 84%; Activity (Botrytis cinerea [25]): 84%; Activity (Cercospora beticola [34]): 68%
C=CC1(C)OC(=O)N(c2cc(Cl)cc(Cl)c2)C1=O (stereo unspecified) [VINCLOZOLIN] | 90% | 100% | 100% | 77% | 100% | 100% | 82% | 100% | 100% | – | – | – | – | – | – | – | – | – | – | – | Activity (Botrytis cinerea [35]): 45%; Activity (Botrytis cinerea [36]): 75%; Activity (Botrytis cinerea [37]): 91%; Activity (Botrytis cinerea [38]): 56%; Activity (Botrytis cinerea [39]): 93%; Activity (Botrytis cinerea [40]): 31%; Activity (Botrytis cinerea [41]): 39%; Activity (Botrytis cinerea [42]): 70%; Activity (Botrytis cinerea [43]): 97%; Activity (Botrytis cinerea [44]): 100%; Activity (Botrytis cinerea [45]): 100%; Activity (Botrytis cinerea [46]): 21%
TRIPHENYLSTANNANOL | – | – | – | – | – | – | – | – | – | 100% | 100% | 88% | 100% | 100% | 100% | 100% | 69% | 94% | 100% | 100% | Activity (Cercospora beticola [47]): 65%; Activity (Cercospora beticola [48]): 90%; Activity (Cercospora beticola [49]): 100%; Activity (Cercospora beticola [50]): 0%; Activity (Cercospora beticola [51]): 0%; Activity (Cercospora beticola [52]): 56%; Activity (Cercospora beticola [53]): 80%; Activity (Cercospora beticola [54]): 60%; Activity (Cercospora beticola [55]): 78%; Activity (Cercospora beticola [34]): 75%
